Measurements: ChEMBL document CHEMBL3507680, “University of Dundee, Gates Library screen for HepG2 cell viability”

Test: Human HepG2 cell viability assay in 384 well format
Assay type: toxicity, cell-based
Design: dose 125 nL, time 70.5 hour; cytotoxicity at 70.5 h: concentration not given beside the values
Conditions: HepG2 cells, read-out: Inhibition
For `COC(=O)[C@@H]1CN(C(=O)c2cscn2)C[C@H]1c1ccc(OC)cc1`, the cytotoxicity at 70.5 h was -1.39%. With `COc1ccc([C@@H]2CN(C(=O)c3cscn3)C[C@H]2C(=O)O)cc1` the cytotoxicity at 70.5 h was -3.2%. For `COc1ccccc1CC(=O)NC(C)c1nc2cccnc2n1C(C)C` (centres undefined), the cytotoxicity at 70.5 h was -1.11%. With `C=C(C)CN1CCN(Cc2cnc(OC)nc2)CC1` the cytotoxicity at 70.5 h was 6.5%. For `Cc1cnc(-c2nc(NC3CCCC3)ncc2-c2onc(C)c2C)cn1`, the cytotoxicity at 70.5 h was -4.47%. `Cc1cnc(-c2nc(NC3CC3)ncc2-c2onc(C)c2C)cn1` showed a cytotoxicity at 70.5 h of -4.72%. Molecule `O=C(O)C1CN(c2cccc(F)c2)CCO1` (centres undefined) has a cytotoxicity at 70.5 h of 14.9%. Molecule `Cc1cccc(C(=O)N2CCCC(Cc3cncc4ccccc34)C2)n1` (centres undefined) has a cytotoxicity at 70.5 h of -0.949%. Molecule `CC(=O)N1CCCC(c2nc(N(C)C)ncc2-c2cccc(F)c2)C1` (centres undefined) has a cytotoxicity at 70.5 h of 3.21%. `Fc1cccc(OC2CCN(Cc3ncc[nH]3)CC2)c1` showed a cytotoxicity at 70.5 h of 18%. Molecule `CNC(=O)c1cn[nH]c1C1CCN(Cc2ccccc2F)C1` (centres undefined) has a cytotoxicity at 70.5 h of -3.84%. Work on `Cc1n[nH]cc1C(=O)N1CCCC1c1cc[nH]n1` (centres undefined) yielded a cytotoxicity at 70.5 h of -5.51%. In the case of `COCCN1CC(c2cc(O)nc(NC(C)C)n2)CC1=O` (centres undefined), the cytotoxicity at 70.5 h is reported as -6.05%. Work on `COCCN1CCCC(c2cncc(Oc3ccccc3OC)n2)C1` (centres undefined) yielded a cytotoxicity at 70.5 h of -3.1%. For `COCCNC(=O)C1(Cc2ccccc2-c2ccncc2)CCOCC1`, the cytotoxicity at 70.5 h was -9.35%. `Cc1nc(C)n(CC(=O)N2CCCC(c3cc4ccccc4cn3)C2)n1` (centres undefined) gave a cytotoxicity at 70.5 h of -5.39%. For `CCn1cc(S(=O)(=O)NC2(CN3CCOCC3)CCCCC2)c(C)n1`, the cytotoxicity at 70.5 h was -0.203%. Molecule `O=C(CCn1c(C(F)F)cc2cccnc21)NC1CCCCC1` has a cytotoxicity at 70.5 h of -5.83%. `Cc1cc(-c2cnc(C)nc2CN(C)C(=O)c2cc(C3CC3)on2)on1` gave a cytotoxicity at 70.5 h of -3.21%. `O=C(c1c[nH]nn1)N1CCN(C(c2ccccc2)C(F)(F)F)CC1` (centres undefined) gave a cytotoxicity at 70.5 h of -10.3%. For `CNS(=O)(=O)c1cccc(CNC(=O)CCc2ccsc2)c1`, the cytotoxicity at 70.5 h was -4.01%. In the case of `COC(=O)C(C)(C)NC(=O)c1scnc1Cl`, the cytotoxicity at 70.5 h is reported as 0.537%. With `CC1(C)CN(C(=O)CCc2nc(-c3ccncc3)no2)CCO1` the cytotoxicity at 70.5 h was -12%. `CC1(C)COCCN1C(=O)CCc1nc(-c2ccccn2)no1` gave a cytotoxicity at 70.5 h of -18.1%. With `Cn1ccc(CS(=O)(=O)Cc2ccccc2)cc1=O` the cytotoxicity at 70.5 h was -12.9%. `CCC(CC)(CCCNC(=O)c1c(C)noc1C)C1OCCO1` gave a cytotoxicity at 70.5 h of -5.03%. For `Cc1c(C(=O)O)nnn1-c1cccc2cccnc12`, the cytotoxicity at 70.5 h was -13.1%. `COc1ccccc1CNCCc1cccc(C(N)=O)c1` gave a cytotoxicity at 70.5 h of -12.3%. `CCCNc1nc(CS(=O)(=O)c2ccccc2)cs1` gave a cytotoxicity at 70.5 h of -7.26%. Work on `COC(=O)C(NC(=O)c1ccc(N(C)C)nc1)c1ccccc1` (centres undefined) yielded a cytotoxicity at 70.5 h of -8.4%. Molecule `C=C(C)CNc1nc(CS(=O)(=O)c2ccccc2)cs1` has a cytotoxicity at 70.5 h of -2.16%. With `Cc1c(C(=O)N2CCC2(C)C)nnn1-c1cccc2cccnc12` the cytotoxicity at 70.5 h was -3.77%. Work on `O=C(Cc1cccc(F)c1F)NS(=O)(=O)c1ccc(Cl)cc1F` yielded a cytotoxicity at 70.5 h of 12.1%. Molecule `Cc1c(C(=O)N2CCC2(C)C)nnn1-c1cccc2cnccc12` has a cytotoxicity at 70.5 h of -12.7%. In the case of `Cc1c(C(=O)N2CC(=O)N(C)C2)nnn1-c1cccc2cccnc12`, the cytotoxicity at 70.5 h is reported as -3.09%. `CCc1ccc(C(NCC(N)=O)C(C)(C)C)o1` (centres undefined) gave a cytotoxicity at 70.5 h of -6.31%. Work on `Cc1ccc(F)c(N2CCCC(NS(=O)(=O)CCCF)C2=O)c1` (centres undefined) yielded a cytotoxicity at 70.5 h of -11.4%. `CCOCCCNc1nc(CS(=O)(=O)c2ccccc2)cs1` gave a cytotoxicity at 70.5 h of -6.56%. With `Cc1csc(CN(C)S(=O)(=O)c2ccc(C)c(N(C)C)c2)n1` the cytotoxicity at 70.5 h was -11.1%. With `Cc1cc(CC(=O)N(C)Cc2cccc(OC(C)C)c2)n[nH]1` the cytotoxicity at 70.5 h was -9.38%. `COCCOCC(=O)NC1CCN(c2ccccn2)CC1` showed a cytotoxicity at 70.5 h of 16.4%. `NC(=O)CNC(c1ccccc1)c1ccc(OC(F)F)cc1` (centres undefined) gave a cytotoxicity at 70.5 h of 11.2%. In the case of `O=C(COCCOc1ccccc1)NC1CCN(c2ncccn2)CC1`, the cytotoxicity at 70.5 h is reported as 41.6%. `O=C(COCCOc1ccccc1)NC1CCN(C(=O)C2CC2)CC1` showed a cytotoxicity at 70.5 h of 14.4%. `Cc1cc(C)c(S(N)(=O)=O)cc1C(=O)NCCN1CCC(C)CC1` gave a cytotoxicity at 70.5 h of -12.9%. Work on `NC(=O)CN1CCC(NC(=O)COCCOc2ccccc2)CC1` yielded a cytotoxicity at 70.5 h of -4.83%. Work on `N#CC1(C(=O)N2CCOC(c3ccc(F)cc3)C2)CCCC1` (centres undefined) yielded a cytotoxicity at 70.5 h of -15.9%. Work on `CCc1nnc2n1CCN(C(C(N)=O)c1ccc(F)cc1)C2` (centres undefined) yielded a cytotoxicity at 70.5 h of 26.6%. `CS(=O)(=O)NC1CC(=O)N(c2ccccc2Cl)C1` (centres undefined) gave a cytotoxicity at 70.5 h of -27%. `Cc1cc(Br)ccc1C(=O)NCCN1CCCCCC1` showed a cytotoxicity at 70.5 h of -10.6%. Molecule `CC(C)(C)CNC(=O)c1ccc(C(=O)O)nc1` has a cytotoxicity at 70.5 h of -9.27%. With `COc1cccc(S(=O)(=O)NC(=O)C2CC(c3ccccc3)=NO2)c1` (centres undefined) the cytotoxicity at 70.5 h was -9.7%. Molecule `CCC(c1ccc(F)cc1)N1CCn2c(CO)nnc2C1` (centres undefined) has a cytotoxicity at 70.5 h of -8.02%. Molecule `NC(=O)CSCC(=O)NC1(c2cccc(Br)c2)CC1` has a cytotoxicity at 70.5 h of 32.5%. Work on `CCc1nc(C2CCCN2C(=O)c2cnc3n[nH]c(C)c3c2)no1` (centres undefined) yielded a cytotoxicity at 70.5 h of -12.5%. Work on `CCCOc1ccc(CCC(=O)Nc2nonc2C)cc1` yielded a cytotoxicity at 70.5 h of -4.36%. For `O=C(O)CCc1ccc(S(=O)(=O)Nc2cnn(CC3CC3)c2)cc1`, the cytotoxicity at 70.5 h was 27.6%. With `Cn1nc(C(=O)NC2(c3ccccc3)CCC2)ccc1=O` the cytotoxicity at 70.5 h was 1.95%. `Cc1ccc(C)c(OCC(=O)NC2CCN(c3ccccn3)CC2)c1` showed a cytotoxicity at 70.5 h of -11.1%. With `CC1Oc2c(cccc2C(=O)N2CCCCCC2)NC1=O` (centres undefined) the cytotoxicity at 70.5 h was 29.3%. `COc1cccc(Cn2[nH]c(C)c3c(NC(=O)C(C)OC)nnc2-3)c1` (centres undefined) gave a cytotoxicity at 70.5 h of -6.21%. With `CN(C)CCN(C)C(=O)NC1CCC(Oc2ccccc2C#N)CC1` (centres undefined) the cytotoxicity at 70.5 h was -4.89%. For `Cc1nnc(NCCc2coc(-c3ccccc3)n2)c(C#N)c1C`, the cytotoxicity at 70.5 h was -2.75%. With `COc1ccc(-c2nc(CCNc3nnc(C)c(C)c3C#N)co2)cc1` the cytotoxicity at 70.5 h was 13.7%. For `O=C1CC(C(=O)Nc2nnc(-c3ccccn3)[nH]2)c2ccccc2N1` (centres undefined), the cytotoxicity at 70.5 h was 6.91%. In the case of `CC(C)c1noc(C[S+]([O-])CC(=O)Nc2ccc(F)c(F)c2)n1` (centres undefined), the cytotoxicity at 70.5 h is reported as 10.4%. In the case of `Cc1csc(-c2cccc(NC(=O)N3CCOCC3)c2)n1`, the cytotoxicity at 70.5 h is reported as -3.32%. `CC(C)C(C)(CNC(=O)OC(C)(C)C)NC(=O)c1cnccn1` (centres undefined) showed a cytotoxicity at 70.5 h of 2.42%. Work on `CN1CCOC(CNCc2nc(-c3cccnc3)no2)C1` (centres undefined) yielded a cytotoxicity at 70.5 h of -6.13%. With `CC(C)c1nc(S(=O)(=O)Nc2ccnn2C2CCCC2)c[nH]1` the cytotoxicity at 70.5 h was 1.34%. In the case of `O=C(Nc1ccc(-c2ccccc2)cn1)C1CCCN1C(=O)C1CC1` (centres undefined), the cytotoxicity at 70.5 h is reported as 5.65%. `CN1CCOC(CNCc2nc(-c3ccco3)no2)C1` (centres undefined) showed a cytotoxicity at 70.5 h of 2.27%. `Cc1cc(Cn2cncc(Br)c2=O)on1` showed a cytotoxicity at 70.5 h of 5.25%. `O=C(NCC(O)c1ccsc1)c1sccc1OC(F)F` (centres undefined) showed a cytotoxicity at 70.5 h of -13.8%. With `CCOCCN1CCN(CC2(O)CCCCC2)CC1` the cytotoxicity at 70.5 h was -4.54%. `CCn1nc2c(cc1=O)CN(CCCOc1ccc(C#N)cc1)CC2` showed a cytotoxicity at 70.5 h of 10.4%. In the case of `Cc1ccc(C(=O)NCC(O)CN2CCCC2=O)c(C)c1` (centres undefined), the cytotoxicity at 70.5 h is reported as -1.64%. `Cc1cc(C)n(CC2CCN(CC(O)CN3CCOCC3)CC2)n1` (centres undefined) showed a cytotoxicity at 70.5 h of -2.43%. With `CCS(=O)(=O)N1Cc2ccccc2CC1C(=O)OCc1c(C)noc1C` (centres undefined) the cytotoxicity at 70.5 h was -7.84%. Molecule `CN(C)c1ncc(C2Nc3ccccc3C3=NCCCN32)cn1` (centres undefined) has a cytotoxicity at 70.5 h of -4.88%. In the case of `COCCC(=O)NC1CCN(CC2(c3cccc(F)c3)CCCC2)CC1`, the cytotoxicity at 70.5 h is reported as 0.0702%. In the case of `CCC(CN1CCCC1)NC(=O)Cc1c(C)[nH]c2c(C)cc(C)cc12` (centres undefined), the cytotoxicity at 70.5 h is reported as 12.8%. With `Cc1ccc(CN(CCCN(C)C)Cc2cnc(C)n2C)o1` the cytotoxicity at 70.5 h was 6.53%. With `Cc1ccc(CN(CCCN2CCOCC2)Cc2[nH]cnc2C)o1` the cytotoxicity at 70.5 h was -2.33%.
